Measurements from ChEMBL document CHEMBL1151013, “The chemical evolution of N,N-dimethyl-2-[5-(1,2,4-triazol-4-yl)-1H-indol-3-yl]ethylamine (L-741,604) and analogues: Potent and selective agonists for 5-HT1D receptors” (Bioorg Med Chem Lett, 1996).

Columns and labels:
Oryctolagus cuniculus = species: Oryctolagus cuniculus; assay: Compound was tested for agonist potency from plots of percentage 5-HT (1 uM) response against concentration of the agonist in white rabbit saphenous vein; assay type: functional, organism-based
[1] = Half-life in rat plasma was determined; assay type: ADME, organism-based
Rattus norvegicus [2] = species: Rattus norvegicus; assay: Maximum fall in carotid flow in rat; assay type: organism-based; settings: in vivo
[3] = Maximum concentration in rat plasma was determined; assay type: ADME, organism-based
[4] = Time required to reach maximum concentration in rat plasma; assay type: ADME, organism-based
[5] = Plasma clearance in rat was determined; assay type: ADME, organism-based; settings: read-out: Clp
Rattus norvegicus [6] = species: Rattus norvegicus; assay: Inhibition of extravation produced in the dura meter by electrical stimulatio of trigeminal ganglion in rat; assay type: functional, organism-based
Canis familiaris = species: Canis familiaris; assay: The plasma concentration producing half maximal fall in carotid flow in dogs; assay type: functional, organism-based; settings: Canis lupus familiaris

Row | Compound | EC50 (Oryctolagus cuniculus) | half-life [1] | Carotid Flow Decrease (Rattus norvegicus [2]) | Cmax [3] | Tmax [4] | clearance [5] | IC50 (Rattus norvegicus [6]) | IC50 (Canis familiaris)
1 | CN(C)CCc1c[nH]c2ccc(-n3cncn3)cc12 | 62 nM | – | – | – | – | – | – | –
2 | CN(C)CCc1c[nH]c2ccc(-n3cnnc3)cc12 | 32 nM | 1.3 h | 27% | 83 ng/mL | 1 h | 37 mL/min/kg | 13 nM | –
3 | CN(C)CCc1c[nH]c2ccc(Cn3cncn3)cc12 [RIZATRIPTAN] | – | 0.8 h | 76% | 271 ng/mL | 0.75 h | 79 mL/min/kg | – | –
4 | CN1CCC(c2c[nH]c3ccc(-n4cnnc4)cc23)CC1 | 39 nM | 2 h | 20% | 53 ng/mL | 3 h | 48 mL/min/kg | 69 nM | 6.9 nM
5 | CNS(=O)(=O)Cc1ccc2[nH]cc(CCN(C)C)c2c1 | – | 1.1 h | 44% | 74 ng/mL | 4 h | 69 mL/min/kg | – | 48.6 nM
